Patent US12245623B2, “Olive oil enriched with oleanolic acid, process for its preparation and use thereof” (CONSEJO SUPERIOR DE INVESTIGACIONES CIENTÍFICAS (CSIC), priority 2018, dated 2025)

Assays:
[1] = Adverse effects in the PREDIABOLE Study (quarterly questioning and retrospective review of electronic medical records); assay type: in vivo, human; details: indicated daily dose (55 mL oil, 36 mg OA/day), up to 30 months, humans
Source text: In each quarterly visit during the development of the trial, participants were questioned about the appearance of gastrointestinal disarrays or other kind of discomfort. On the other hand, a family physician not belonging to the study staff, and therefore being unaware of the allocation of the participants to the study groups, carried out a retrospective study using the electronic medical records.
They explored for each participant the period comprised between the inclusion in the trial up to two years after its completion, and focused on analytical values of serum creatinine levels (marker of renal function) and alanine and aspartate aminotransferase enzymes (as markers of hepatic alteration). Normal creatinine levels are established in 61.9 to 114.9 μM for men and 53 to 97.2 μM for women. A serum creatinine level 1.5-folds higher than the normal value (≈150 μM) was adopted as criteria of kidney function alteration.
Since micro and macrovascular disorders are frequently associated to pathological complications of insulin resistance and diabetes, the electronic medical records were also explored for cerebral (transient ischemic stroke and ictus), cardiac (ischemic heart disease, chronic ischemia and effort angina) and peripheral (peripheral arterial disease) vascular diseases. In addition, any other significant adverse event suffered by participants were also took in consideration. […]

[2] = cited from earlier work
[3] = Fasting plasma OA levels in the PREDIABOLE Study (GC-MS); assay type: in vivo, human; details: both study groups
Source text: At baseline and every six months afterwards, fasting blood samples were taken and analyzed for the serum glucose, insulin and HbA1c levels, as well as the lipid profile (triglycerides, total cholesterol, HDL-c and LDL-c). At each annual visit since the recruitment, participants were submitted to an OGTT. All these analytical determinations were made in the Laboratory of Analysis and Clinical Biochemistry of the ‘Virgen del Rocio’ University Hospital of Seville. In addition, aliquots of all the blood samples were sent to Instituto de la Grasa-CSIC to determine the plasma OA content. Laboratory technicians of both institutions were also blinded to the intervention groups.
Adherence to the dietary intervention has been assessed through two indirect methods: the self-reported compliance Haynes-Sackett (Rodriguez-Chamorro M A et al. Review of therapeutic compliance measurement tests used in clinical practice. Atencion Primaria 2008, 40, 413-417) test and the delivering of the empty bottles presumably consumed. In addition, the OA plasma levels have been measured, as objective biomarker of compliance, in a random sample of the PREDIABOLE biobank (25 aliquots per study group, corresponding to 0, 12, 18 and 30 months of follow-up). […]

[4] = previous study, Rada et al. 2015; cited from earlier work

Structure (SMILES): CC1(C)CC[C@]2(C(=O)O)CC[C@]3(C)C(=CC[C@@H]4[C@@]5(C)CC[C@H](O)C(C)(C)[C@@H]5CC[C@]43C)[C@@H]2C1 [OA, 3b-hydroxy-olean-12-en-28-oic acid]
- safety of long-term administration [1]: safe for humans
- solubility in aqueous media [2]: practically insoluble
- solubility in lipophilic matrices [2]: partially soluble
- fasting OA plasma concentration, average value ([3]; at the onset of the study): ca. 160 ng/mL
- concentration at 30 months ([3]; human, in vivo, after 30 months of follow-up): ~300 ng/mL
- mean residence time of OA in human blood after its ingestion [4]: 8.9 h
